{"source": "paper PMC8883597", "about": "(Xenobiotica; the fate of foreign compounds in biological …, 2021)", "key": {"[1]": {"details": "rat, in vivo"}, "[2]": {"details": "male, Sprague Dawley, rat, in vivo, iv, 2.25 mg/kg"}, "[3]": {"test": "Toxicokinetics in plasma after a single gavage administration", "details": "male rats"}, "rats": {"test_system": "rats", "details": "ref Hirata-Koizumi et al., 2008b, cited from earlier work"}, "[4]": {"details": "male, Sprague Dawley, rat, in vivo"}, "[5]": {"details": "rat, in vivo, 10 mg/kg; cited from earlier work"}, "[6]": {"details": "male, Sprague Dawley, po, 30 mg/kg"}, "[7]": {"details": "male, Sprague Dawley, po, 300 mg/kg"}, "[8]": {"details": "male, Sprague Dawley, 300 mg/kg"}}, "note": "Read-outs that look alike come from different tables or passages of the source.", "data": [{"compound": "Cc1cc(-n2nc3ccc(Cl)cc3n2)c(O)c(C(C)(C)C)c1", "note": "[Bumetrizole, 2-(5-chloro-2H-1,2,3-benzotriazol-2-yl)-6-(1,1-dimethylethyl)-4-methylphenol]", "values": [{"measurement": "time points where plasma concentrations were below LOD", "setting": "[1]; male, Sprague Dawley, 30 mg/kg", "value": 0.0333, "unit": "h"}, {"measurement": "AUC", "setting": "[1]; [6]", "value": "21 ± 5.3", "unit": "µg·h/mL"}, {"measurement": "Cmax", "setting": "[1]; [6]", "value": "2.02 ± 0.49", "unit": "µg/mL"}, {"measurement": "Half-life (beta half-life)", "setting": "[1]; [6]", "value": "48.4 ± 116", "unit": "h"}, {"measurement": "Tmax", "setting": "[1]; [6]", "value": "3.08 ± 0.77", "unit": "h"}, {"measurement": "AUC", "setting": "[1]; [7]", "value": "41.6 ± 11.6", "unit": "µg·h/mL"}, {"measurement": "Cmax", "setting": "[1]; [7]", "value": "2.45 ± 0.71", "unit": "µg/mL"}, {"measurement": "Half-life (beta half-life)", "setting": "[1]; [7]", "value": "37.5 ± 401", "unit": "h"}, {"measurement": "Tmax", "setting": "[1]; [7]", "value": "5.06 ± 1.24", "unit": "h"}]}, {"compound": "Cc1ccc(O)c(-n2nc3ccccc3n2)c1", "note": "[Drometrizole, 2-(2H-Benzotriazol-2-yl)-4-methylphenol]", "values": [{"measurement": "Half-life (beta half-life)", "setting": "[1]; male, Sprague Dawley, 30 mg/kg", "value": "1120 ± 5780", "unit": "h"}, {"measurement": "Cmax", "setting": "[1]; [6]", "value": "0.138 ± 1.9", "unit": "µg/mL"}, {"measurement": "Tmax", "setting": "[1]; [6]", "value": "0.0196 ± 24.6", "unit": "h"}, {"measurement": "AUC", "setting": "[1]; [7]", "value": "29.8 ± 14.7", "unit": "µg·h/mL"}, {"measurement": "Cmax", "setting": "[1]; [7]", "value": "0.358 ± 0.026", "unit": "µg/mL"}, {"measurement": "Half-life (beta half-life)", "setting": "[1]; [7]", "value": "103 ± 72", "unit": "h"}, {"measurement": "plasma elimination half-life (beta half-life)", "setting": "[1]; [7]", "value": "103 to 1120", "unit": "h"}]}, {"compound": "CC(C)(C)CC(C)(C)c1ccc(O)c(-n2nc3ccccc3n2)c1", "note": "[Octrizole, 2-(2H-Benzotriazol-2-yl)-4-(1,1,3,3-tetramethylbutyl)phenol]", "values": [{"measurement": "AUC", "setting": "[1]; [6]", "value": "5.98 ± 1.95", "unit": "µg·h/mL"}, {"measurement": "Cmax", "setting": "[1]; [6]", "value": "0.561 ± 0.17", "unit": "µg/mL"}, {"measurement": "Half-life (beta half-life)", "setting": "[1]; [6]", "value": "56.8 ± 233", "unit": "h"}, {"measurement": "Tmax", "setting": "[1]; [6]", "value": "3.71 ± 1.08", "unit": "h"}, {"measurement": "AUC", "setting": "[1]; [7]", "value": "30 ± 7.4", "unit": "µg·h/mL"}, {"measurement": "Cmax", "setting": "[1]; [7]", "value": "3.59 ± 0.85", "unit": "µg/mL"}, {"measurement": "Half-life (beta half-life)", "setting": "[1]; [7]", "value": "21.4 ± 18.2", "unit": "h"}, {"measurement": "AUC", "setting": "[2]", "value": "3.51 ± 0.44", "unit": "µg·h/mL"}, {"measurement": "Cmax", "setting": "[2]", "value": "20.6 ± 7.8", "unit": "µg/mL"}, {"measurement": "Half-life (gamma half-life)", "setting": "[2]", "value": "15.4 ± 2.4", "unit": "h"}, {"measurement": "time points where plasma concentrations were below LOD", "setting": "[3]; single gavage 300 mg/kg group", "value": 0.0333, "unit": "h"}]}, {"compound": "CC(C)(C)c1ccc(O)c(-n2nc3ccccc3n2)c1", "note": "[ditBu-BZT, 2-(2H-benzotriazol-2-yl)-4-tert-butylphenol]", "values": [{"measurement": "toxicity finding", "setting": "rats; gavage 0.1–12.5 mg/kg for 13 and 52 weeks", "value": "enlarged livers accompanied by histopathological changes"}, {"measurement": "toxicity finding at the highest dose", "setting": "rats; highest dose", "value": "Increased relative organ weights (e.g., brain and testes) and hematological effects"}]}, {"compound": "CCC(C)(C)c1cc(-n2nc3ccccc3n2)c(O)c(C(C)(C)CC)c1", "note": "[ditPe-BZT, 2-(2H-Benzotriazol-2-yl)-4,6-bis(1,1-dimethylpropyl)phenol]", "values": [{"measurement": "Tmax", "setting": "[1]; [6]", "value": "2.96 ± 1.10", "unit": "h"}, {"measurement": "Half-life (beta half-life)", "setting": "[1]; [7]", "value": "17.1 ± 53.3", "unit": "h"}, {"measurement": "Oral bioavailability", "setting": "[4]; 300 mg/kg", "value": 5.53, "unit": "%"}]}, {"compound": "CC(C)(C)c1ccc(O)c(-n2nc3ccccc3n2)c1", "note": "[tBu-BZT, 2-(2H-Benzotriazol-2-yl)-4-tert-butylphenol]", "values": [{"measurement": "increase in AUC with a 10-fold increase in the dose", "setting": "[3]; gavage 30 to 300 mg/kg", "value": "dose-proportional"}]}, {"compound": "CC(C)(C)c1cc(CCC(=O)OCCCCCCOC(=O)CCc2cc(-n3nc4ccccc4n3)c(O)c(C(C)(C)C)c2)cc(-n2nc3ccccc3n2)c1O", "note": "[tBuPrHexEst-BZT, 3-(2H-benzotriazol-2-yl)-5-(1,1-dimethylethyl)-4-hydroxybenzenepropanoic acid, 1,6-hexanediyl ester]", "values": [{"measurement": "Tmax (time at which Cmax was achieved)", "setting": "[5]", "value": "1 to 2", "unit": "h"}, {"measurement": "apparent half-life", "setting": "[5]", "value": "~ 12 h"}, {"measurement": "maximum blood concentration (Cmax)", "setting": "[5]", "value": "< 0.13", "unit": "µg/g"}]}, {"compound": "COC(=O)CCc1cc(-n2nc3ccccc3n2)c(O)c(C(C)(C)C)c1", "note": "[tBuPrMeEst-BZT, 3-(2H-benzotriazol-2-yl)-5-(1,1-dimethylethyl)-4-hydroxybenzenepropanoic acid, methyl ester]", "values": [{"measurement": "Tmax (time at which Cmax was achieved)", "setting": "[5]", "value": "1 to 2", "unit": "h"}, {"measurement": "maximum blood concentration (Cmax)", "setting": "[5]", "value": "< 2", "unit": "µg/g"}]}, {"compound": "CCCCCCCCOC(=O)CCc1cc(-n2nc3ccccc3n2)c(O)c(C(C)(C)C)c1", "note": "[tBuPrOcEst-BZT, 3-(2H-Benzotriazol-2-yl)-5-(1,1-dimethylethyl)-4-hydroxybenzenepropanoic acid, octyl ester]", "values": [{"measurement": "AUC", "setting": "[1]; male, Sprague Dawley, 30 mg/kg", "value": "42.3 ± 11.5", "unit": "µg·h/mL"}, {"measurement": "Cmax", "setting": "[1]; male, Sprague Dawley, 30 mg/kg", "value": "12.8 ± 3.1", "unit": "µg/mL"}, {"measurement": "Half-life (beta half-life)", "setting": "[1]; male, Sprague Dawley, 30 mg/kg", "value": "9.53 ± 1.73", "unit": "h"}, {"measurement": "Tmax", "setting": "[1]; male, Sprague Dawley, 30 mg/kg", "value": "1.07 ± 0.30", "unit": "h"}, {"measurement": "AUC", "setting": "[1]; [8]", "value": "294 ± 85", "unit": "µg·h/mL"}, {"measurement": "Cmax", "setting": "[1]; [8]", "value": "47.8 ± 13.5", "unit": "µg/mL"}, {"measurement": "Half-life (beta half-life)", "setting": "[1]; [8]", "value": "13.6 ± 6.4", "unit": "h"}, {"measurement": "Tmax", "setting": "[1]; [8]", "value": "1.91 ± 0.56", "unit": "h"}, {"measurement": "Cmax", "setting": "[1]; [7]", "value": "12.8 to 47.8", "unit": "µg/mL"}, {"measurement": "Tmax", "setting": "[1]; [7]", "value": "1.07 to 1.91", "unit": "h"}, {"measurement": "plasma elimination half-life (beta half-life)", "setting": "[1]; [7]", "value": "9.53 to 13.6", "unit": "h"}, {"measurement": "concentration of the parent in plasma", "setting": "[1]; po", "value": "mostly below LOD"}, {"measurement": "AUC", "setting": "[2]", "value": "13.8 ± 0.3", "unit": "µg·h/mL"}, {"measurement": "Cmax", "setting": "[2]", "value": "22.4 ± 0.9", "unit": "µg/mL"}, {"measurement": "Half-life (gamma half-life)", "setting": "[2]", "value": "19.2 ± 1.1", "unit": "h"}, {"measurement": "Oral bioavailability", "setting": "[4]; 30 mg/kg", "value": 23.0, "unit": "%"}, {"measurement": "Oral bioavailability", "setting": "[4]; 300 mg/kg", "value": 16.0, "unit": "%"}]}]}
